Results from EP4032896A1, “THIAZOLOPYRIMIDONES AS INHIBITORS OF DDR1/2 AND THERAPEUTIC USES THEREOF” (Fundación del Sector Público Estatal Centro Nacional de …, priority 2021, dated 2022).

Legend:
DDR1 [1] = molecular target: T1, DDR1 (Mus musculus, UniProt Q03146); assay: Cellular assay: inhibition of Collagen I-induced DDR1 autophosphorylation in HEK293T cells transiently transfected with DDR1 plasmid (Western blot); format: cell-based, human; settings: pcDNA3.1 DDR1 WT mouse plasmid, compound 1 h, then 10 µg/mL Collagen I 1 h, P-DDR1 (Y513), read-out: pDDR1 EC50
T1 construct: expressed in transfected cells; host or cells: HEK293T
T1 sequence (Q03146 20-911): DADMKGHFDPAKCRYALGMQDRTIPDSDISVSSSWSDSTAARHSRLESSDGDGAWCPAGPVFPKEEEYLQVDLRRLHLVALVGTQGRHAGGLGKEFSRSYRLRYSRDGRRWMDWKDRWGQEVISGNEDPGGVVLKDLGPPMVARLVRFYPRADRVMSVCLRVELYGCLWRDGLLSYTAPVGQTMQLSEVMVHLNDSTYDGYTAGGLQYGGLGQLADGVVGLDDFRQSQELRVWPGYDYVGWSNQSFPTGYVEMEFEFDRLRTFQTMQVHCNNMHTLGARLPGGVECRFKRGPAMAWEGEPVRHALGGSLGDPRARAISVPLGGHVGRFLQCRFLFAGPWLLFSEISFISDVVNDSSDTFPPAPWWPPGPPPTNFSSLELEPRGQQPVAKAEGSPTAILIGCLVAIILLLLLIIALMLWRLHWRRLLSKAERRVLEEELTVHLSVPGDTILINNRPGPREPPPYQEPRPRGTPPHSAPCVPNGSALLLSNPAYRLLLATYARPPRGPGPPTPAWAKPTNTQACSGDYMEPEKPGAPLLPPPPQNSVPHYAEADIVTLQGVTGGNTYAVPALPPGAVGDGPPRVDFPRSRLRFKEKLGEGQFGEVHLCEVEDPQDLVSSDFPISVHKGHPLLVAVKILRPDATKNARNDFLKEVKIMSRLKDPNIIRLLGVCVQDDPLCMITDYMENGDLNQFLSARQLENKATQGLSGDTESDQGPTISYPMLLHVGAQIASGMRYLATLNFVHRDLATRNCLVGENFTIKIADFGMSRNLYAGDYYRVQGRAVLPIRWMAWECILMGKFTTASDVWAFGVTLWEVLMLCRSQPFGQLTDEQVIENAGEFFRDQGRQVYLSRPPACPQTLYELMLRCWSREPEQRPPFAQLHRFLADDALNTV
Experimental: DDR1/2 cellular assay: Transient transfection of HEK293T cells with DDR1 plasmid is used to study the inhibition of the autophosphorylation of DDR1 induced by Collagen I in cells. HEK293T are seeded, 6x10^5 cells per well in 6-well plates and incubated for 6 h at 37 °C, 5% CO2. Then, cells are transfected using Effectene reactive (Quiagen) with pcDNA3.1 DDR1 WT mouse plasmid. Cells are incubated with transfection complexes under normal growth conditions for 24 h. After that, medium is replaced with fresh medium and cells are incubated for an additional 18 h. Eight serial 1:3 compound dilutions are made in DMSO. The compounds are added to each well of 6 well cell plates and are incubated at 37 °C under CO2 atmosphere 1 h. DDR1's autophosphorylation is stimulated by 1h treatment with 10 µg/mL Collagen I. Then, cells are washed in PBS, lyse adding 100 µl of complete RIPA protein lysis buffer (RIPA Buffer, 1 mM DTT, 5 mM Bezamidine, 10 µg/mL Aprotinin, 10 µg/mL Leupeptin, 710 ng/mL Pepstatin A, 100 µg/mL Trypsin Inhibitor, 40 µg/mL Bestatin, completed with PhosSTOP EASYpack and complete Mini, EDTA-free) and incubated 20 minutes at 4 °C and then centrifugated. Lysates are kept at -80 °C. The protein content of the lysates is determined by DC protein assay (Biorad, Ref. 5000116). The proteins are resolved by SDS-PAGE and transferred to nitrocellulose membrane (GE Healthcare #10600003). The membranes are incubated overnight at 4 °C with antibodies specific for DDR1 (D1G6) (Cell signaling #5583), P-DDR1 (Y513) (E1N8F) (Cell Signaling # 14531) they are washed and then incubated with Alexa Fluor 680 goat anti-rabbit IgG secondary antibodies (Invitrogen, A21076). The bands are visualized and quantified using an Odyssey infrared imaging system (Li-Cor Biosciences). The percentage of DDR1 phosphorylation is finally plotted against concentration for each compound and EC50s for intracellular DDR1 inhibition are calculated using ActivityBase from IDBS.

DDR1 [2] = molecular target: T2, DDR1 (Homo sapiens, UniProt Q08345); assay: LanthaScreen Eu-Kinase Binding Assay (TR-FRET tracer displacement), DDR1; settings: catalytic domain GST Tag DDR1; Kinase Tracer 178
T2 construct: The enzymes were purchased as a catalytic domain GST Tag DDR1(#PR6913A); purchased ThermoFisher PR6913A
Description: (§1) DDR1/2 binding assay: The binding assay relies on the LanthaScreen ™ Eu-Kinase Binding Assay (ThermoFisher Scientfic). This is a kinase assay platform based on measuring the binding and displacement of an Alexa Fluor® conjugate of an ATP-competitive kinase inhibitor or tracer at a kinase active site (Kinase Tracer 178. #PV5593). Binding of the tracer to the kinase is detected by addition of a europium (Eu)-labeled anti-GST antibody (#PV 5594) which specifically labels the kinase of interest. This binding results in a high degree of fluorescence resonance energy transfer (FRET), whereas displacement of the tracer with a kinase inhibitor results in a loss of FRET. The enzymes were purchased as a catalytic domain GST Tag DDR1(#PR6913A) and DDR2 (#PR7167A) from ThermoFisher. Assay conditions were as indicated by the kit manufacturers. Assays were performed in 384-well plates. The final read out was generated using an EnVision plate reader (Perkin-Elmer). The emission ratio was calculated by dividing the acceptor/tracer emission (665 nm) by the antibody/donor emission (615 nm). Values were plotted against the inhibitor concentration and fit to a sigmoid dose-response curve using Activity base by IDBS software.

DDR2 = molecular target: T3, DDR2 (Homo sapiens, UniProt Q16832); assay: LanthaScreen Eu-Kinase Binding Assay (TR-FRET tracer displacement), DDR2; settings: catalytic domain GST Tag DDR2; Kinase Tracer 178
T3 construct: The enzymes were purchased as a catalytic domain GST Tag DDR1(#PR6913A) and DDR2 (#PR7167A); purchased ThermoFisher PR7167A
T3 sequence (Q16832 563-849 limits assumed): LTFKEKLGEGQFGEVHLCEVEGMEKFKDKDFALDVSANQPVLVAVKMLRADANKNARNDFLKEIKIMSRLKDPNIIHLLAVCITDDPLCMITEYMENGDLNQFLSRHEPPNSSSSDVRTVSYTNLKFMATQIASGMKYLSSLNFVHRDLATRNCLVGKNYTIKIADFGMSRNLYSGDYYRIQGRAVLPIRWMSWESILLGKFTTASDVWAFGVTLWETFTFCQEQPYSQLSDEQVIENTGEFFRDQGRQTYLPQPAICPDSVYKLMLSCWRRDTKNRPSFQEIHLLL
Description: as §1

T2 sequence (Q08345 610-905 limits assumed): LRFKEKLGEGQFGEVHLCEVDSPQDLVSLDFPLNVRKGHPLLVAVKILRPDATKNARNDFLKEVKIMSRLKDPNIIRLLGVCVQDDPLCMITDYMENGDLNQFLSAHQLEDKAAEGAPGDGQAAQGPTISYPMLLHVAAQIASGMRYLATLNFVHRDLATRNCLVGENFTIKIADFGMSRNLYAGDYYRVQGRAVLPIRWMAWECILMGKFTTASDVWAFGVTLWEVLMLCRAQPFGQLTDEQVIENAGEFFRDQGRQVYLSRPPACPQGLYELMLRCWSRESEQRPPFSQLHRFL

Row | EC50 (DDR1 [1]) [nM] | IC50 (DDR1 [2]) [nM] | IC50 (DDR2) [nM] | SMILES
1 | 82.7 | 10.9 | 54 | COc1ccc(-c2c(-c3ccnc(Nc4cccc(N5CCN(CCO)CC5)c4)n3)sc3nccc(=O)n23)cc1Cl [Compound 62, 3-(3-Chloro-4-methoxy-phenyl)-2-(2-{3-[4-(2-hydroxy-ethyl)-piperazin-1-yl]-phenylamino}-pyrimidin-4-yl)-thiazolo[3,2-a]pyrimidin-5-one]
2 | 24.9 | 2.73 | 11.7 | O=c1ccnc2sc(-c3ccnc(Nc4cccc(N5CCN(CCO)CC5)c4)n3)c(-c3ccc(Cl)cc3)n12 [Compound 44, 3-(4-Chloro-phenyl)-2-(2-{3-[4-(2-hydroxy-ethyl)-piperazin-1-yl]-phenylamino}-pyrimidin-4-yl)-thiazolo[3,2-a]pyrimidin-5-one]
3 | 15.7 | 13.4 | 39.4 | CN1CCN(c2ccc(Nc3nccc(-c4sc5nccc(=O)n5c4-c4ccccc4)n3)cc2)CC1 [Compound 34, 2-{2-[4-(4-Methyl-piperazin-1-yl)-phenylamino]-pyrimidin-4-yl}-3-phenyl-thiazolo[3,2-a]pyrimidin-5-one]
4 | 34.6 | 147 | 423 | CCOC(=O)c1cnc2sc(-c3ccnc(Nc4cccc(N5CCN(CCO)CC5)c4)n3)c(-c3ccccc3)n2c1=O [Compound 71, 2-(2-{3-[4-(2-Hydroxy-ethyl)-piperazin-1-yl]-phenylamino}-pyrimidin-4-yl)-5-oxo-3-phenyl-5H-thiazolo[3,2-a]pyrimidine-6-carboxylic acid ethyl ester]
5 | 142 | 119 | 325 | O=c1ccnc2sc(-c3ccnc(Nc4cccc(N5CCN(CCO)CC5)c4)n3)c(-c3ccc(F)c(C(F)(F)F)c3)n12 [Compound 63, 3-(4-Fluoro-3-trifluoromethyl-phenyl)-2-(2-{3-[4-(2-hydroxy-ethyl)-piperazin-1-yl]-phenylamino}-pyrimidin-4-yl)-thiazolo[3,2-a]pyrimidin-5-one]
6 | 141 | 15.3 | 55.8 | Cc1nc2sc(-c3ccnc(Nc4cccc(N5CCN(CCO)CC5)c4)n3)c(-c3ccccc3)n2c(=O)c1C [Compound 75, 2-(2-{3-[4-(2-Hydroxy-ethyl)-piperazin-1-yl]-phenylamino}-pyrimidin-4-yl)-6,7-dimethyl-3-phenyl-thiazolo[3,2-a]pyrimidin-5-one]
7 | 192 | 15.5 | 18 | O=c1ccnc2sc(-c3ccnc(Nc4cccc(N5CCN(CCO)CC5)c4)n3)c(-c3ccccc3)n12 [Compound 31, 2-(2-{3-[4-(2-Hydroxy-ethyl)-piperazin-1-yl]-phenylamino}-pyrimidin-4-yl)-3-phenyl-thiazolo[3,2-a]pyrimidin-5-one]

Continued, compound first:

Row | SMILES | EC50 (DDR1 [1]) [nM] | IC50 (DDR1 [2]) [nM] | IC50 (DDR2) [nM]
8 | CN1CCN(c2ccc(Nc3nccc(-c4sc5nccc(=O)n5c4-c4cccc(Cl)c4)n3)cc2)CC1 [Compound 42, 3-(3-Chloro-phenyl)-2-{2-[4-(4-methyl-piperazin-1-yl)-phenylamino]-pyrimidin-4-yl}-thiazolo[3,2-a]pyrimidin-5-one] | 30.7 | 5.8 | 17.9
9 | COc1ccc(-c2c(-c3ccnc(Nc4cccc(S(N)(=O)=O)c4)n3)sc3nccc(=O)n23)cc1 [Compound 52, 3-{4-[3-(4-Methoxy-phenyl)-5-oxo-5H-thiazolo[3,2-a]pyrimidin-2-yl]-pyrimidin-2-ylamino}-benzenesulfonamide] | 112 | 10.9 | 40.6
10 | O=c1ccnc2sc(-c3ccnc(Nc4cccc(N5CCN(CCO)CC5)c4)n3)c(C3CCOCC3)n12 [Compound 66, 2-(2-{3-[4-(2-Hydroxy-ethyl)-piperazin-1-yl]-phenylamino}-pyrimidin-4-yl)-3-(tetrahydropyran-4-yl)-thiazolo[3,2-a]pyrimidin-5-one] | 610 | 321 | 1480
11 | NS(=O)(=O)c1cccc(Nc2nccc(-c3sc4nccc(=O)n4c3-c3cccc(Cl)c3Cl)n2)c1 [Compound 59, 3-{4-[3-(2,3-Dichloro-phenyl)-5-oxo-5H-thiazolo[3,2-a]pyrimidin-2-yl]-pyrimidin-2-ylamino}-benzenesulfonamide] | 99.3 | 10.2 | 47.3
12 | NS(=O)(=O)c1cccc(Nc2nccc(-c3sc4nccc(=O)n4c3-c3ccc(Cl)cc3)n2)c1 [Compound 43, 3-{4-[3-(4-Chloro-phenyl)-5-oxo-5H-thiazolo[3,2-a]pyrimidin-2-yl]-pyrimidin-2-ylamino}-benzenesulfonamide] | 31.4 | 11.6 | 29
